Reference: the supplement of paper PMC10307832

What was measured:
Assay in all cases: relative viability (nuclei count vs DMSO), 5 days (fraction); higher = more cells survive
[1] = compound: COc1cc2ncn(-c3cc(OCc4ccccc4C(F)(F)F)c(C(N)=O)s3)c2cc1OC + COc1cc2c(Oc3ccc(NC(=O)C4(C(=O)Nc5ccc(F)cc5)CC4)cc3F)ccnc2cc1OCCCN1CCOCC1 [Foretinib] (partner 0.25 µM)
In short: (§1)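 Relative viability divides the nuclei count in treated wells by that in vehicle wells. Lung cancer cell lines were seeded in 1536-well plates, dosed by pin tool the next day, and fixed and stained after 5 days in one step with final 0.05% Triton X-100, 1% formaldehyde and 1 ug/ml Hoechst. Dosing was a single drug or a fixed anchor-drug dose plus five library-drug doses (not always all listed) in √10 steps, and values are medians of duplicate plates imaged at 4×.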

[2] = compound: COc1cc2ncn(-c3cc(OCc4ccccc4C(F)(F)F)c(C(N)=O)s3)c2cc1OC + Cc1cc(Nc2cc(N3CCN(C)CC3)nc(Sc3ccc(NC(=O)C4CC4)cc3)n2)n[nH]1 [Tozasertib] (partner 0.1 µM)
In short: as §1

[3] = compound: COc1cc2ncn(-c3cc(OCc4ccccc4C(F)(F)F)c(C(N)=O)s3)c2cc1OC + CCNC(=O)c1noc(-c2cc(C(C)C)c(O)cc2O)c1-c1ccc(CN2CCOCC2)cc1 [Luminespib] (partner 0.01 µM)
In short: as §1

[4] = compound: COc1cc2ncn(-c3cc(OCc4ccccc4C(F)(F)F)c(C(N)=O)s3)c2cc1OC + NC(=O)Nc1cc(-c2cccc(F)c2)sc1C(=O)N[C@H]1CCCNC1 [AZD7762] (partner 0.2 µM)
In short: as §1

Cell Line | relative viability ([1]; first compound 0.05 µM) | relative viability ([1]; first compound 0.1581 µM) | relative viability ([1]; first compound 0.5 µM) | relative viability ([1]; first compound 1.581 µM) | relative viability ([1]; first compound 5 µM) | relative viability ([2]; first compound 0.05 µM) | relative viability ([2]; first compound 0.1581 µM) | relative viability ([2]; first compound 0.5 µM) | relative viability ([2]; first compound 1.581 µM) | relative viability ([2]; first compound 5 µM) | relative viability ([3]; first compound 0.05 µM) | relative viability ([3]; first compound 0.1581 µM) | relative viability ([3]; first compound 0.5 µM) | relative viability ([3]; first compound 1.581 µM) | relative viability ([3]; first compound 5 µM) | relative viability ([4]; first compound 0.05 µM) | relative viability ([4]; first compound 0.1581 µM) | relative viability ([4]; first compound 0.5 µM) | relative viability ([4]; first compound 1.581 µM) | relative viability ([4]; first compound 5 µM)
201T | 1.06 | 1.09 | 1.07 | 0.414 | 0.165 | 1.03 | 1.09 | 0.809 | 0.426 | 0.324 | 1.07 | 1.08 | 1 | 0.689 | 0.28 | 0.642 | 0.668 | 0.554 | 0.442 | 0.242
A-427 | 1.13 | 0.923 | 0.81 | 0.398 | 0.137 | 0.195 | 0.188 | 0.176 | 0.162 | 0.142 | 0.998 | 0.973 | 0.617 | 0.246 | 0.114 | 0.793 | 0.68 | 0.682 | 0.231 | 0.153
ABC-1 | 1.2 | 1.08 | 0.758 | 0.225 | 0.239 | 0.219 | 0.223 | 0.155 | 0.251 | 0.255 | 0.709 | 0.679 | 0.255 | 0.311 | 0.263 | 0.782 | 0.487 | 0.741 | 0.631 | 1.01
BEN | 0.559 | 0.557 | 0.623 | 0.271 | 0.307 | 0.514 | 0.498 | 0.5 | 0.56 | 0.47 | 0.398 | 0.522 | 0.227 | 0.21 | 0.214 | 0.788 | 0.735 | 0.678 | 0.464 | 0.389
CAL-12T | 0.981 | 0.974 | 0.907 | 0.193 | 0.216 | 0.316 | 0.26 | 0.208 | 0.164 | 0.2 | 0.858 | 0.44 | 0.446 | 0.217 | 0.102 | 0.555 | 0.598 | 0.514 | 0.239 | 0.199
ChaGo-K-1 | 0.915 | 0.89 | 0.71 | 0.266 | 0.172 | 0.212 | 0.219 | 0.197 | 0.251 | 0.184 | 0.617 | 0.516 | 0.285 | 0.18 | 0.14 | 0.896 | 0.853 | 0.882 | 0.237 | 0.16
EKVX | 0.779 | 0.516 | 0.603 | – | 0.46 | 0.371 | 0.408 | 0.311 | – | 0.229 | 1 | 1.01 | 0.64 | – | 0.578 | 0.841 | 0.48 | 0.655 | 0.416 | 0.33
EMC-BAC-2 | 1.11 | 1.01 | 0.815 | 0.309 | 0.212 | 0.332 | 0.314 | 0.223 | 0.215 | 0.245 | 1.19 | 1.22 | 0.931 | 0.569 | 0.219 | 1.18 | 1.21 | 1.08 | 0.357 | 0.223
EPLC-272H | – | 0.338 | 0.102 | 0.102 | 0.104 | – | 0.306 | 0.169 | 0.148 | 0.147 | – | 0.31 | 0.115 | 0.111 | 0.153 | 0.191 | 0.334 | 0.247 | 0.107 | 0.13
H3255 | 0.876 | 1.06 | 0.714 | – | 0.542 | 0.563 | 0.722 | 0.451 | – | 0.41 | 0.861 | 0.924 | 0.757 | – | 0.518 | 0.946 | 0.922 | 0.625 | 0.395 | 0.324
HARA | 1.03 | 0.886 | 0.734 | 0.11 | 0.0673 | 0.091 | 0.117 | 0.117 | 0.111 | 0.0871 | 0.951 | 0.654 | 0.238 | 0.0482 | 0.0507 | 0.301 | – | 0.201 | 0.173 | 0.112
HCC-15 | 0.98 | 0.919 | 0.334 | 0.16 | 0.124 | 0.509 | 0.394 | 0.138 | 0.151 | 0.139 | 0.312 | 0.291 | 0.149 | 0.101 | 0.0855 | 1.18 | 1.05 | 1.03 | 0.21 | 0.154
HCC-827 | 1.04 | 0.987 | 0.718 | 0.277 | 0.213 | 0.411 | 0.397 | 0.37 | 0.344 | 0.313 | 0.335 | 0.683 | 0.372 | 0.194 | 0.161 | 0.229 | 0.246 | 0.185 | 0.201 | 0.161
HOP-62 | 1.16 | 1 | 1.03 | 0.295 | 0.139 | 0.361 | 0.334 | 0.241 | 0.175 | 0.201 | 0.966 | 0.638 | 0.708 | 0.176 | 0.123 | 0.523 | 0.714 | 0.316 | 0.118 | 0.0755
NCI-H522 | – | – | – | – | – | 0.481 | 0.549 | 0.58 | 0.536 | 0.454 | 1.1 | 0.899 | 1.16 | 0.787 | 0.737 | 1.01 | 0.769 | 0.766 | 0.461 | 0.417
